From PubChem BioAssay (NCI)
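Cultured in 96-well plates, cells were exposed to test compound for 48 hours across five concentrations. GI50: concentration for 50% inhibition of growth. TGI denotes the concentration required for complete inhibition of growth.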

Tests used:
Assay in all cases: DTP human tumour cell line panel, 48 h
SK-MEL-5 melanoma = tested on: SK-MEL-5 melanoma
EKVX NSCLC = tested on: EKVX NSCLC
MALME-3M melanoma = tested on: MALME-3M melanoma
MCF7 breast = tested on: MCF7 breast
786-0 renal = tested on: 786-0 renal
SF-268 CNS = tested on: SF-268 CNS
IGROV1 ovarian = tested on: IGROV1 ovarian
UO-31 renal = tested on: UO-31 renal
NCI-H460 lung = tested on: NCI-H460 lung
HL-60(TB) leukemia = tested on: HL-60(TB) leukemia
MOLT-4 leukemia = tested on: MOLT-4 leukemia
SF-539 CNS = tested on: SF-539 CNS
OVCAR-4 ovarian = tested on: OVCAR-4 ovarian
HCC-2998 colon = tested on: HCC-2998 colon
SNB-75 CNS = tested on: SNB-75 CNS
A498 renal = tested on: A498 renal
SF-295 CNS = tested on: SF-295 CNS
HCT-116 colon = tested on: HCT-116 colon
SNB-19 CNS = tested on: SNB-19 CNS
NCI-H23 lung = tested on: NCI-H23 lung
A549 NSCLC = tested on: A549 NSCLC
ACHN renal = tested on: ACHN renal
K-562 leukemia = tested on: K-562 leukemia
MDA-MB-435 = tested on: MDA-MB-435
TK-10 renal = tested on: TK-10 renal
NCI/ADR-RES ovarian = tested on: NCI/ADR-RES ovarian
HT29 colon = tested on: HT29 colon
PC-3 prostate = tested on: PC-3 prostate
HCT-15 colon = tested on: HCT-15 colon

What does the source list for `O=C(N/N=C\c1cc(Cl)ccc1O)c1ccncc1`?
GI50 (SK-MEL-5 melanoma): 1.96 µM; TGI (SK-MEL-5 melanoma): 19 µM; GI50 (EKVX NSCLC): 27.3 µM; TGI (EKVX NSCLC): > 100 µM; GI50 (MALME-3M melanoma): 14.6 µM; TGI (MALME-3M melanoma): > 100 µM; GI50 (MCF7 breast): 2.05 µM; TGI (MCF7 breast): > 100 µM; GI50 (786-0 renal): 2.6 µM; TGI (786-0 renal): 32.2 µM; GI50 (SF-268 CNS): 2.69 µM; TGI (SF-268 CNS): > 100 µM; GI50 (IGROV1 ovarian): 6.16 µM; TGI (IGROV1 ovarian): > 100 µM; GI50 (UO-31 renal): 2.18 µM; TGI (UO-31 renal): > 100 µM; GI50 (NCI-H460 lung): 1.46 µM; TGI (NCI-H460 lung): > 100 µM; GI50 (HL-60(TB) leukemia): 3.02 µM; TGI (HL-60(TB) leukemia): > 100 µM; GI50 (MOLT-4 leukemia): 2.91 µM; TGI (MOLT-4 leukemia): > 100 µM; GI50 (SF-539 CNS): 3.97 µM; TGI (SF-539 CNS): > 100 µM; GI50 (OVCAR-4 ovarian): 0.967 µM; TGI (OVCAR-4 ovarian): 73.5 µM; GI50 (HCC-2998 colon): 3.03 µM; TGI (HCC-2998 colon): > 100 µM; GI50 (SNB-75 CNS): 9.29 µM; TGI (SNB-75 CNS): > 100 µM; GI50 (A498 renal): 15.2 µM; TGI (A498 renal): > 100 µM; GI50 (SF-295 CNS): 5.29 µM; TGI (SF-295 CNS): > 100 µM; GI50 (HCT-116 colon): 1.63 µM; TGI (HCT-116 colon): > 100 µM; GI50 (SNB-19 CNS): 5.95 µM; TGI (SNB-19 CNS): > 100 µM; GI50 (NCI-H23 lung): 4.01 µM; TGI (NCI-H23 lung): > 100 µM; GI50 (A549 NSCLC): 12.9 µM; TGI (A549 NSCLC): > 100 µM; GI50 (ACHN renal): 1.91 µM; TGI (ACHN renal): > 100 µM; GI50 (K-562 leukemia): 4.55 µM; TGI (K-562 leukemia): > 100 µM; GI50 (MDA-MB-435): 11.7 µM; TGI (MDA-MB-435): > 100 µM; GI50 (TK-10 renal): 17.6 µM; TGI (TK-10 renal): > 100 µM; GI50 (NCI/ADR-RES ovarian): 2.01 µM; TGI (NCI/ADR-RES ovarian): > 100 µM; GI50 (HT29 colon): 5.9 µM; TGI (HT29 colon): > 100 µM; GI50 (PC-3 prostate): 3.69 µM; TGI (PC-3 prostate): > 100 µM; GI50 (HCT-15 colon): 0.576 µM; TGI (HCT-15 colon): > 100 µM
